Laboratory results from US20220235012A1, “ACID ADDITION SALT OF PYRIMETHAMINE” (GLG PHARMA S.A., priority 2018, published 2022).
Structures can show the parent of a compound that is named as a salt.

Assays:
[1] = Solubility of pyrimethamine salts, own method at 20° C. and 60° C. in water, 10% Tween 80 and 10% Cremophor RH 40; format: physicochemical; settings: without surfactant and/or emulsifier
[2] = Solubility in terms of Ph. Eur. 9.2 (approximate volume of solvent per gram of solute); format: physicochemical; settings: descriptive term
Method: The solubility of pyrimethamine salts with different organic and mineral acids was evaluated according to the general recommendations described in Ph. Eur. 9.2 for the pharmaceutical active ingredients. The “solubility” ° according to Ph. Eur. 9.2, is the approximate volume of solvent in millilitres per gram of solute.

[3] = cited from earlier work

SMILES | solubility in water at ambient temperature [1] | Solubility in terms of Ph. Eur. 9.2 [2] | solubility of pyrimethamine in water [3] [µg/mL]
CCc1nc(N)nc(N)c1-c1ccc(Cl)cc1 [Methanesulfonate, methanesulfonic acid salt of 5-(4-chlorophenyl)-6-ethyl-2,4-pyrimidinediamine] | freely soluble | Sparingly soluble | –
CCc1nc(N)nc(N)c1-c1ccc(Cl)cc1 [pyrimethamine, 5-(4-chlorophenyl)-6-ethyl-2,4-pyrimidinediamine] | – | – | 10
